From EP4635976A1, “CONSTANT UNI-TABS” (Medigene Immunotherapies GmbH, priority 2024, dated 2025)
Marks after values point to notes of the source that are not given here.

How the values were obtained:
Test in all cases: Peptide mismatched library: peptide-loaded T2 cells co-cultured with TCR-transduced CD8+ T cells, IFN-γ-ELISA
Format in all cases: cell-based
[1] = tested on: WT NY-ESO_PD1-41 BB TCR ("SWAT"); details: for IFN-γ [pg/ml production] MIT 045 SWAT: donor MIT045; for IFN-γ [pg/ml production] MIT 045 SWAT / IFN-γ [pg/ml production] MIT038 SWAT: CD8^+ T cells transduced with WT NY-ESO_PD1-41 BB TCR (SWAT), mismatch peptide loaded on T2 cells, IFNg-ELISA; for IFN-γ [pg/ml production] MIT038 SWAT: donor MIT038
Text: (§1) The aim was to further compare the WT NY-ESO-1 with two UNI-TABS NY-ESO-TCRs (Position A199 in loop 1 and A245 in loop 2) in combination with PD1_41 BB regarding allogeneic HLA cross-recognition and HLA fine typing.
(§2) To test a peptide mismatched library, 336 different mismatched peptides, differing from 1-4 amino acids from the wild-type peptide recognized by the WT TCR were loaded on T2 cells and co-cultured with CD8^+ T cell transduced with either wt NY-ESO_PD1-41 BB TCR, NY-ESO-UniTABS-A199_PD1-41 BB TCR or NY-ESO-UniTABS-A245_PD1-41 BB TCR. The culture supernatant was collected, and an IFN-γ-ELISA performed.
(§3) The sequences and the numbers of the respective mismatch peptides are listed. The cells contain the values of IFN-γ [pg/ml production]. BetaA199: UniTAB epitope set forth in SEQ ID NO: 47 inserted in loop1 at position A199 flanked by GSG linker sequences, BetaA245: UniTAB epitope set forth in SEQ ID NO: 47 inserted in loop 2 at position A245 flanked by GSG linker sequences. Table 2: Mismatched peptides recognized by NY-ESO WT and NY-ESO variants

[2] = tested on: NY-ESO-A245_PD1-41 BB TCR (UniTAB2); details: donor MIT045; CD8^+ T cells transduced with NY-ESO-A245_PD1-41 BB TCR (UniTAB2); mismatch peptide loaded on T2 cells; IFNg-ELISA
Text: as §1, §2, §3

[3] = tested on: NY-ESO-A199_PD1-41 BB TCR (UniTAB1); details: CD8^+ T cells transduced with NY-ESO-A199_PD1-41 BB TCR (UniTAB1), mismatch peptide loaded on T2 cells, IFNg-ELISA; for IFN-γ [pg/ml production] MIT038 UniTABs-A199: donor MIT038
Text: as §1, §2, §3

| Sequence | recognition of mismatched peptide (IFN-γ response) ([1]; WT TCR-PD1-41BB transduced T cells, two donors) | IFN-γ [pg/ml production] MIT 045 SWAT [1] | IFN-γ [pg/ml production] MIT 045 UniTABs-A245 [2] | IFN-γ [pg/ml production] MIT038 SWAT [1] | IFN-γ [pg/ml production] MIT038 UniTABs-A199 [3] | IFN-γ [pg/ml production] MIT 045 UniTABs-A199 ([3]; donor MIT045) |
| --- | --- | --- | --- | --- | --- | --- |
| ICLQWITQC [compound 8] | only recognized by WT TCR transduced T cells of one donor | 24.7**** pg/ml |  |  |  |  |
| NLLFWICGC [compound 221] |  | 100.6* pg/ml | 0.0* pg/ml | 788.9* pg/ml | 900.2* pg/ml | 889.3* pg/ml |
| SLLCYIKHC [compound 239] |  | 32.1** pg/ml |  | 228.6** pg/ml | 312.2** pg/ml |  |
